Assay results published in PubChem BioAssay (NCI).
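The compound was tested at five concentrations on cells cultured in 96-well plates, with a 48-hour exposure period. GI50 is the concentration that inhibits growth by half. TGI: concentration producing complete growth inhibition.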

Legend:
Assay in all cases: inhibition of tumour cell growth, NCI panel, 48 h
OVCAR-5 ovarian = system: OVCAR-5 ovarian
HCT-15 colon = system: HCT-15 colon
ACHN renal = system: ACHN renal
SR leukemia = system: SR leukemia
SF-295 CNS = system: SF-295 CNS
RPMI-8226 leukemia = system: RPMI-8226 leukemia
MOLT-4 leukemia = system: MOLT-4 leukemia
CAKI-1 renal = system: CAKI-1 renal
UO-31 renal = system: UO-31 renal
SK-MEL-2 melanoma = system: SK-MEL-2 melanoma

Row | SMILES | TGI (OVCAR-5 ovarian) [µM] | TGI (HCT-15 colon) [µM] | TGI (ACHN renal) [µM] | TGI (SR leukemia) [µM] | TGI (SF-295 CNS) [µM] | TGI (RPMI-8226 leukemia) [µM] | TGI (MOLT-4 leukemia) [µM] | TGI (CAKI-1 renal) [µM] | GI50 (OVCAR-5 ovarian) [µM] | GI50 (HCT-15 colon) [µM] | GI50 (ACHN renal) [µM] | GI50 (UO-31 renal) [µM] | TGI (UO-31 renal) [µM] | GI50 (SR leukemia) [µM] | GI50 (SF-295 CNS) [µM] | GI50 (RPMI-8226 leukemia) [µM] | GI50 (MOLT-4 leukemia) [µM] | GI50 (SK-MEL-2 melanoma) [µM] | TGI (SK-MEL-2 melanoma) [µM] | GI50 (CAKI-1 renal) [µM]
1 | C=CO/N=[N+](\[O-])N(CC)CC | > 100 | > 100 | > 100 | > 100 | > 100 | > 100 | > 100 | > 100 | – | – | – | – | – | – | – | – | – | – | – | –
2 | Cc1ccc(/C=C/c2c(C(=O)/C=C/c3ccccc3)c(C)nc3ccccc23)cc1 | 3.53 | 3.24 | 2.93 | 5.67 | 5.02 | 5.13 | 4.29 | – | 1.9 | 1.32 | 1.59 | 1.26 | 2.52 | 1.18 | 2.2 | 1.54 | 0.708 | – | – | –
3 | CCC[CH2][Sn]([CH2]CCC)([O]C(=O)c1cc(OC)c(OC)cc1OC)[O][Sn]([CH2]CCC)([CH2]CCC)[O]C(=O)c1cc(OC)c(OC)cc1OC | 3.14 | 1.71 | 1.17 | – | 2.41 | 0.667 | 0.786 | 0.686 | 1.75 | 0.497 | 0.339 | 1.33 | 2.6 | – | 1.1 | 0.236 | 0.101 | 0.173 | 0.824 | 0.161
4 | Cc1cn2c(/C=C3/C(=O)Nc4c3ccc3ccccc43)c(C(F)(F)F)nc2s1 | > 100 | > 100 | > 100 | 26.4 | > 100 | – | > 100 | > 100 | 9.99 | 0.618 | 6.24 | 1.97 | > 100 | 0.238 | 0.494 | – | 2.7 | 1.06 | > 100 | 1.76
5 | Oc1c(C(Nc2ccccc2Br)c2ccccc2)ccc2cccnc12 (stereo unspecified) | 51.7 | 27.3 | > 100 | > 100 | 47.3 | > 100 | 7.56 | 54.3 | 5.34 | 0.672 | 2.04 | 1.32 | 45.8 | 0.715 | 1.65 | 6.28 | 1.68 | – | – | 1.36
6 | O=C(Oc1cccc(Cl)c1)c1ccccc1Nc1ccnc(C(F)(F)F)c1 | 57 | – | – | > 100 | 45.5 | 4.33 | > 100 | 4.1 | 13.8 | – | – | 23.5 | > 100 | 0.434 | 18.3 | 1.83 | 0.938 | 15.7 | > 100 | 2.13
7 | O=[N+]([O-])/C=C/c1c(Cl)cccc1Cl | 16.2 | 5.04 | 7.49 | – | 14.5 | 0.514 | – | 7.86 | – | – | – | – | 13.3 | – | – | – | – | – | 14 | –
8 | CCC(=O)N1C/C(=C/c2ccc(Cl)cc2)C(=O)/C(=C/c2ccc(Cl)cc2)C1 | 3 | 1.25 | 1.98 | – | 2.09 | 0.911 | 5.87 | 7.85 | 1.48 | 0.386 | 0.745 | 1.15 | 2.5 | – | 0.514 | 0.101 | 0.974 | 2.01 | 3.94 | 2.25
9 | Cc1cc(N(CCC#N)S(=O)(=O)c2ccccc2)ccc1/C=C1\N=C(c2ccc(Cl)cc2)OC1=O | > 100 | > 100 | > 100 | – | > 100 | > 100 | > 100 | > 100 | – | – | – | – | > 100 | – | – | – | – | – | > 100 | –
10 | COc1cc2c(cc1OC)-c1ncc3c(OC)ccc(OC)c3c1C2 | > 100 | > 100 | > 100 | – | 42.7 | 78.2 | – | > 100 | 44 | 9.93 | 24 | 18.3 | 60 | – | 12.1 | 6.44 | – | 27.3 | 79 | 14.4
11 | COc1cc(CNc2nc3c(N)cc(C(F)(F)F)cc3nc2-c2ccccc2)cc(OC)c1OC | > 100 | > 100 | > 100 | – | > 100 | > 100 | > 100 | – | – | – | – | – | 85.5 | – | – | – | > 100 | – | > 100 | –
12 | C/C(CC(=O)NCCc1ccccc1)=N\NS(=O)(=O)c1ccc(C)cc1 | > 100 | – | > 100 | – | > 100 | > 100 | > 100 | – | – | – | – | – | > 100 | – | – | – | – | – | > 100 | –
13 | CCOC(=O)NC(=O)c1cn(CCN2CCN(C(=O)CNC(=O)CNC(=O)Cn3cc(C(=O)NC(=O)OCC)c(=O)[nH]c3=O)CC2)c(=O)[nH]c1=O | > 100 | > 100 | > 100 | > 100 | > 100 | – | > 100 | > 100 | – | – | – | – | > 100 | – | – | – | – | – | > 100 | –
14 | O=C1C2C(C(=O)N1c1ccccc1)C1c3ccccc3C2C2C(=O)N(c3ccccc3)C(=O)C21 (stereo unspecified) | 99.5 | > 100 | > 100 | – | 15.5 | > 100 | > 100 | > 100 | – | – | – | – | > 100 | – | – | – | – | – | 6.52 | –
15 | COc1ccccc1N=Nc1c(-c2ccccc2)nn(C(=O)CC(=O)Nc2cccc(C)c2)c1-c1ccccc1 | > 100 | > 100 | > 100 | – | > 100 | – | 50.6 | > 100 | – | – | – | – | > 100 | – | – | – | – | – | – | –
16 | c1ccc(-c2nn3c(c2-c2ccnc4cc(OCCN5CCOCC5)ccc24)CCC3)nc1 | > 100 | > 100 | > 100 | – | > 100 | > 100 | > 100 | > 100 | 72.1 | 31.5 | 36.3 | 10.8 | > 100 | – | > 100 | 53.7 | 51.8 | > 100 | > 100 | 45.6
17 | Cc1ccc(S(=O)(=O)N/N=C(\c2nc3ccc(Cl)cc3[nH]c2=O)C(O)c2ccco2)cc1 (stereo unspecified) | > 100 | > 100 | > 100 | – | > 100 | – | > 100 | > 100 | – | – | – | – | – | – | – | – | – | – | > 100 | –
